Article PMC3263330 (2011)
Changes are numbered by the printed parent chain.

Legend:
[1] = target: T1, aryl hydrocarbon receptor (mAhR) (Mus musculus, UniProt P30561, S359A); assay: [3H]TCDD specific binding, hydroxyapatite assay
T1 sequence (P30561 10-848 S359A): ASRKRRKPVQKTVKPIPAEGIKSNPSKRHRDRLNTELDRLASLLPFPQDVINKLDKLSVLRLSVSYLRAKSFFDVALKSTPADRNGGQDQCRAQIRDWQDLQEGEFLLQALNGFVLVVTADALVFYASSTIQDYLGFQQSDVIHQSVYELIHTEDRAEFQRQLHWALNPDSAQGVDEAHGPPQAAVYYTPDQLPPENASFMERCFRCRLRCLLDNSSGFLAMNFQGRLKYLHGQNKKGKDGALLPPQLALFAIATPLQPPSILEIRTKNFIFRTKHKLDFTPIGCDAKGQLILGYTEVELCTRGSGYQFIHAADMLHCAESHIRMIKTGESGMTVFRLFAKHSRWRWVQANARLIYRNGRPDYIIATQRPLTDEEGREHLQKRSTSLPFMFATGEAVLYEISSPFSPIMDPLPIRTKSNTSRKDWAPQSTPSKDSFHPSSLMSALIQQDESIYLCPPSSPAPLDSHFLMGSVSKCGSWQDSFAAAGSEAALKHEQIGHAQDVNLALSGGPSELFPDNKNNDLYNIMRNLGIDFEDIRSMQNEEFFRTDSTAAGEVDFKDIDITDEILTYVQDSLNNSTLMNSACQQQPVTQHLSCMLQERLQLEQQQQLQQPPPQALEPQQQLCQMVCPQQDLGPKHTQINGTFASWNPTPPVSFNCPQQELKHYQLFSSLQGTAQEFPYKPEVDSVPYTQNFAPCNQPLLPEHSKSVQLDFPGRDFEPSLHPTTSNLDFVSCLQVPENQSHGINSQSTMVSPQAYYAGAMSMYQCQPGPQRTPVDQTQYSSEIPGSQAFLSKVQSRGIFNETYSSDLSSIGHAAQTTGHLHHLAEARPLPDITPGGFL

[2] = target: T2, aryl hydrocarbon receptor (mAhR) (Mus musculus, UniProt P30561); assay: [3H]TCDD; assay type: binding
T2 sequence (P30561 10-848): T1 sequence (P30561 10-848 S359A) with A350S

[3] = target: T2, aryl hydrocarbon receptor (mAhR); assay: competitive [3H]TCDD hydroxyapatite radioligand binding assay; conditions: read-out: Experimental IC50 (M), in vitro synthesized mAhR

Row | Structure (SMILES) | % reduction of binding vs wild type [1] | [3H]TCDD (2 nM) specific binding, hydroxyapatite assay [2] | IC50 [3] [M]
1 | Clc1cc2c(cc1Cl)Oc1cc(Cl)c(Cl)cc1O2 [TCDD, 2,3,7,8-tetrachlorodibenzo-p-dioxin] | ~ 40 % reduction of binding vs wild type | THS compounds displace [^3H]TCDD from the in vitro synthesized AhR in concentration-dependent manner. | 
2 | O=[N+]([O-])c1cc(C(F)(F)F)ccc1NCc1ccco1 [THS-020] |  |  | 4.2e-06
